Values quoted from earlier work in US20220273652A1, “PHARMACEUTICAL COMPOSITION COMPRISING HMG-COA REDUCTASE INHIBITORS AND FENOFIBRATE” (INTAS PHARMACEUTICALS LTD., priority 2019, published 2022).

Test system: cytochrome P450
Conditions: human hepatocytes

For `CC(C)c1nc(N(C)S(C)(=O)=O)nc(-c2ccc(F)cc2)c1/C=C/[C@@H](O)C[C@@H](O)CC(=O)O` [rosuvastatin, bis[(E)-7-[4(4-fluorophenyl)-6-isopropyl-2-[methyl(methylsulfonyl)amino]-pyrimidin-5-yl](3R,5S)-3,5dihydroxyhept-6-enoic acid]], the “Substrate for cytochrome P450-based metabolism” value is given as “poor substrate”.
